Legend:
[1] = target: JAK2 (Homo sapiens, UniProt O60674); assay: JAK2 biochemical potency; details: read-out: JAK2 HTRF IC50
[2] = target: T1, Phospho Src(Y416) (Homo sapiens, UniProt P12931); assay: Phospho Src(Y416) Sandwich ELISA; assay type: cell-based; details: Panc1; read-out: pSrc EC50 (μM) Panc1
T1 construct: endogenous in cells; host or cells: Panc1
Experimental: E. Phospho Src(Y416) Sandwich ELISA
Phospho Src(Y416) Sandwich ELISA kit was obtained from Cell Signaling Tech.
(i) Reagent Preparation • 1. All microwell strips were brought to rt before use. • 2. 1× Wash Buffer was prepared by diluting 20× Wash Buffer (included in each PathScan® Sandwich ELISA Kit) in MilliQ® water or equivalently purified water. • 3. 1× Cell Lysis Buffer from CST #9803: 20 mM Tris (pH 7.5), 150 mM NaCl, 1 mM ethylene diamine tetraacetate (EDTA), 1 mM ethylene glycol-bis(2-aminoethyl)-N,N,N′,N′-tetraacetic acid (EGTA), 1% Triton™ X-100, 2.5 mM sodium pyrophosphate, 1 mM b-glycerophosphate, 1 mM Na3VO4, 1 μg/mL leupeptin. This buffer was stored at 4° C. for short-term use (1-2 weeks).
(ii) Preparing Cell Lysates • 1. The media was aspirated. The cells were treated by adding fresh media containing inhibitor for 1 h. The compound of Example 214 was used as reference. • 2. The cells were harvested under non-denaturing conditions by removing media and rinsing cells once with ice-cold PBS. • 3. PBS was removed, 0.5 mL ice-cold 1× Cell Lysis Buffer plus 1 mM phenylmethylsulfonylfluoride (PMSF) was added to each plate (10 cm in diameter) and the plate incubated on ice for 5 min. • 4. The cells were scraped off of the plate, transferred to an appropriate tube, and kept on ice. • 5. The lysates were sonicated on ice. • 6. Microcentrifugation was performed for 10 min at 4° C. and the supernatant transferred to a new tube. The supernatant was the cell lysate and was stored at −80° C. in single-use aliquots.
(iii) Test Procedure • 1. After the microwell strips reached rt, the required number of microwells were broken off. The microwells were placed in the strip holder. Unused microwells were resealed and stored at 4° C. immediately. • 2. 100 μL of Sample Diluent (supplied in each PathScan® Sandwich ELISA Kit, blue color) was added to a micro centrifuge tube. 100 μL of cell lysate was transferred into the tube and vortexed for a few seconds. […] Individual data sheets for each kit provided information regarding an appropriate dilution factor for lysates and kit assay results. However, dilution factors were titrated when specific cell lysates are used. • 3. 100 μL of each diluted cell lysate were added to the appropriate well. It was then sealed with tape and pressed firmly onto top of microwells. The plate was incubated for 2 h at 37° C. Alternatively, the plate was incubated overnight at 4° C., which gave the best detection of target protein. • 4. The tape was gently removed and the wells washed: • a. The plate contents were discarded into a receptacle. • b. Each well was washed 4 times with 1× Wash Buffer, 200 μL. • c. For each wash, plates were struck on fresh towels hard enough to remove the residual solution in each well, but wells were not allowed to completely dry at any time. • d. The underside of all wells was cleaned with a lint-free tissue. • 5. 100 μL of Detection Antibody (green color) was added to each well, sealed with tape and the plate incubated for 1 h at 37° C. • 6. The wash procedure was repeated as in Step 4. • 7. 100 μL of HRP-linked secondary antibody (red color) was added to each well, sealed with tape and the plate incubated plate for 30 min at 37° C. • 8. The wash procedure was repeated as in Step 4. • 9. 100 μL of TMB Substrate was added to each well, sealed with tape and the plate incubated for 10 min at 37° C. or 30 min at 25° C. • 10. 100 μL of STOP Solution was added to each well and shaken gently for a few seconds. Initial color of positive reaction was blue, which changed to yellow upon addition of STOP Solution. • 11. The results were read. • a. Visual Determination—read within 30 min after adding STOP Solution. • b. Spectrophotometric Determination—the underside of wells were wiped with a lint-free tissue and absorbance read at 450 nm within 30 min after adding STOP Solution.

[3] = target: T2, AURKB (Aurora B) enzyme (Homo sapiens, UniProt Q96GD4); assay: Aurora B HTRF assay; assay type: biochemical; details: read-out: AuroraB IC50
T2 construct: purchased Invitrogen PVR 130
T2 sequence (Q96GD4 whole entry): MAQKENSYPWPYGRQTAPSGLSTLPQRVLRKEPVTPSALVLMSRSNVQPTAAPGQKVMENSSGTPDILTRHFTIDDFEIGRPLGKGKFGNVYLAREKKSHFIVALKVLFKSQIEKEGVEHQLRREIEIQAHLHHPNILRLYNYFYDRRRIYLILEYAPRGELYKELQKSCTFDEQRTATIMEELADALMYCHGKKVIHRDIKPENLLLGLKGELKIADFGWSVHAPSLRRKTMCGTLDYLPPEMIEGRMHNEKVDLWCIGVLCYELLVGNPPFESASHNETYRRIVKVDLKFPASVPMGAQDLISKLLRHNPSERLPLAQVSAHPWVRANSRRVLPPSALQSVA
Method in brief: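 HTRF kinase assay with 5 nM Aurora B and 50 nM ULight-PLK (Ser137) peptide, with a reagent at 30 μM final; 1 h at rt. Reaction stopped with EDTA, and phospho-peptide detected with 2 nM Eu-anti-P-PLK(Ser137) antibody after 1 h at rt, read as HTRF.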

T1 sequence (P12931 whole entry): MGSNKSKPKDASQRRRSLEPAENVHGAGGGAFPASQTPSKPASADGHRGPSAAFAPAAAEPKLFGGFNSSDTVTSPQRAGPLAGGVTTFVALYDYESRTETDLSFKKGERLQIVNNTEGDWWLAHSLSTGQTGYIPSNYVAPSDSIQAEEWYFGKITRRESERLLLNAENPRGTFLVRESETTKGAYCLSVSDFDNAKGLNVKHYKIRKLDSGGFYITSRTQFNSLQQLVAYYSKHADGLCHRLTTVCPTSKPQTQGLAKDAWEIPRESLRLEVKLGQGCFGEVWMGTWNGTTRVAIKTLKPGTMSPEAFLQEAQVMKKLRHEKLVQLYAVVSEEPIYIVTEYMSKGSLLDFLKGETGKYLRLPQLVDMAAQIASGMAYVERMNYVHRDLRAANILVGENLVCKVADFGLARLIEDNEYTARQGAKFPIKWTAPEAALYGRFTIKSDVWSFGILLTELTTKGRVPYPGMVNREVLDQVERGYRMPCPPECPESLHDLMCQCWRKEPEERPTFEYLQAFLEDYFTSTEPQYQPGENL
Sequence of JAK2 (O60674 whole entry, species assumed): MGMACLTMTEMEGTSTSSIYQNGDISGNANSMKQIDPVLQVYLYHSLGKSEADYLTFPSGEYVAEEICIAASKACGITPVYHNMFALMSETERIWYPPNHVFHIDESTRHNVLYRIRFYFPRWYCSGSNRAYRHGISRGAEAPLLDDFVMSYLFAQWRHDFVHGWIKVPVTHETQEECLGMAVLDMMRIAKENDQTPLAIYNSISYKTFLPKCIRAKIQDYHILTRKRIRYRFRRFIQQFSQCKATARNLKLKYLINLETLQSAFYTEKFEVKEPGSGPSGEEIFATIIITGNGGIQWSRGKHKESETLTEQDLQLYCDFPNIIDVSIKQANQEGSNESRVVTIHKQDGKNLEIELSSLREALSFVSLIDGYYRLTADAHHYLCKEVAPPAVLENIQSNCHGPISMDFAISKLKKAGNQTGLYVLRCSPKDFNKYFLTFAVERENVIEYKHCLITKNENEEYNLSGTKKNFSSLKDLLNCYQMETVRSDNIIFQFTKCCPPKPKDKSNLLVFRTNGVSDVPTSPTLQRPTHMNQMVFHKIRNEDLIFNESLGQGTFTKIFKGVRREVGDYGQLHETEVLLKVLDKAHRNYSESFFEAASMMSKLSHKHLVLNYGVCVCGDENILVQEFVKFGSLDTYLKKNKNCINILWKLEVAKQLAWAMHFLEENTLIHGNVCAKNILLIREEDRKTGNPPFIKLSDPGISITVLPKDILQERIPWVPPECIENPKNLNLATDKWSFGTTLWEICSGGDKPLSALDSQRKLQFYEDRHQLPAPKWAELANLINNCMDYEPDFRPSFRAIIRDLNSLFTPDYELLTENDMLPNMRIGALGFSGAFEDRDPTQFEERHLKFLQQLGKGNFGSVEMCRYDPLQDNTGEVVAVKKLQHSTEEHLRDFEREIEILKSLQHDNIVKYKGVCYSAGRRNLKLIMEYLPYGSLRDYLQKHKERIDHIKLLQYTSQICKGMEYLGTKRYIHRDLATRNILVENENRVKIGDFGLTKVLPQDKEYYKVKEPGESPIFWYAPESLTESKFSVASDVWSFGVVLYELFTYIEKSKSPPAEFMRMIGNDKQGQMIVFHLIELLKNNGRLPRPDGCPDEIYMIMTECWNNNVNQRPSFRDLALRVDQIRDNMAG

| IC50 [1] | EC50 [2] | IC50 [3] | Compound |
| --- | --- | --- | --- |
| – | > 1 µM | < 20 nM | Cn1cc(Nc2ncc3ccn(S(=O)(=O)c4cccc5cccnc45)c3n2)cn1 [Example 318] |
| > 1000 nM | – | < 20 nM | COc1cc(N2CCNCC2)ccc1Nc1cc2c(ccn2S(=O)(=O)c2cccc3cccnc23)cn1 [Example 330, N-(2-Methoxy-4-(piperazin-1-yl)phenyl)-1-(quinolin-8-ylsulfonyl)-1H-pyrrolo[3,2-c]pyridin-6-amine] |
| – | – | < 20 nM | Cc1cc(Nc2ncc3cnn(S(=O)(=O)c4cccc5cccnc45)c3n2)ccc1N1CCNCC1 [Example 332] |
| – | > 1 µM | < 20 nM | COc1ccccc1S(=O)(=O)n1ncc2cnc(Nc3ccc(N4CCNCC4)cc3)nc21 [Example 335] |
| – | > 1 µM | – | CN(c1ncccc1Cn1ccc2cnc(Nc3ccc(N4CCCC4CO)cc3)nc21)S(C)(=O)=O (centres unmarked) [Example 536] |

The remaining lines, values behind:

| Compound | IC50 [1] | EC50 [2] | IC50 [3] |
| --- | --- | --- | --- |
| O=C1CCc2cc(Nc3ncc4cnn(Cc5ccccc5OC(F)F)c4n3)ccc2N1 [Example 21] | < 20 nM | > 1 µM | – |
| FC(F)Oc1ccccc1Cn1ccc2cnc(Nc3ccc4ncsc4c3)nc21 [Example 36] | < 20 nM | > 1 µM | > 1000 nM |
| CC(=O)Nc1cccc(Nc2cc3c(cn2)cnn3Cc2ccccc2OC(F)F)c1 [Example 64] | – | > 1 µM | > 1000 nM |
| FC(F)Oc1ccccc1Cn1ncc2cnc(Nc3ccc4ncsc4c3)cc21 [Example 82] | – | > 1 µM | > 1000 nM |
| CN(c1ncccc1Cn1ncc2cnc(Nc3ccc4[nH]c(=O)[nH]c4c3)cc21)S(C)(=O)=O [Example 142] | – | > 1 µM | – |
| O=C1CCc2cc(Nc3ncc4ccn(S(=O)(=O)c5cccc6cccnc56)c4n3)ccc2N1 [Example 169] | – | > 1 µM | < 20 nM |
| CN(c1ncccc1Cn1ccc2cnc(Nc3ccc(NCCO)cc3)nc21)S(C)(=O)=O [Example 201] | < 20 nM | > 1 µM | < 20 nM |
| CN(c1ncccc1Cn1ncc2cnc(Nc3ccc4c(c3)CCC(=O)N4)nc21)S(C)(=O)=O [Example 202] | < 20 nM | > 1 µM | – |
| O=C1CCc2cc(Nc3ncc4ccn(Cc5cccnc5N5CCCS5(=O)=O)c4n3)ccc2N1 [Example 216] | – | – | < 20 nM |
| O=S(=O)(c1cccc2nsnc12)n1ccc2cnc(Nc3ccc(N4CCNCC4)cc3)nc21 [Example 253] | < 20 nM | > 1 µM | < 20 nM |

Source: patent US20160222014A1, “COMPOUNDS FOR REGULATING FAK AND/OR SRC PATHWAYS” (ASANA BIOSCIENCES, LLC, priority 2013, published 2016)
